These compounds were tested on Plasmodium falciparum 3D7 (assay: P. falciparum 3D7 asexual blood stage assay, Assay Procedure Version 1 (SYBR green readout)). Details: 3D7, Erythrocyte, Version 1 of the assay procedure (no asterisk), 72 h incubation in infected erythrocytes, 10,000 nM to 0.51 nM.
Assay type: cell-based
Experimental: Asexual Blood Stage Assay
The assay used to measure the effect of test compounds on a bloodstream stage of Plasmodium falciparum 3D7 strain employs SYBR green as the readout. This is a dye that binds to double stranded deoxyribonucleic acid (DNA) with a resulting increase in fluorescence, allowing detection of P. falciparum DNA in infected erythrocytes, and thereby providing a measure of parasite growth and propagation.
P. falciparum Culture Maintenance
Erythrocytes (A+blood) were prepared for both parasite culture and assay by washing 4 times with incomplete media (15.9 g RPMI 1640 (25 mM HEPES, L-glutamine), 1 g NaHCO3, 2 g glucose, 400 μL gentacin (500 mg/mL), 2 mL hypoxanthine solution (13.6 g/L in 0.1M NaOH pH 7.3) in 1 litre of media). The cells were centrifuged at 1800 g for 5 minutes, before decanting the supernatant and re-suspending in fresh incomplete media. On the final wash, the cells were re-suspended in complete media (incomplete media with 5 g/L AlbumaxII), and centrifuged at 1800 g for 3 minutes. This cell sediment was treated as 100% haematocrit.
P. falciparum 3D7 was cultured in erythrocytes at 5% haematocrit in complete media at 37° C. (1% O2, 3% CO2, balance N2). Cultures were split on a weekly basis to achieve a 1% parasitaemia in erythrocites at 5% haematocrit in fresh media. Culture media is replaced by fresh media every other day (2 times during the week).
Assay Procedure—Version 1
On day 1, test compounds were added to assay plates using Echo dispensing technology (3 fold dilution and 10 points titration). 50 nL of each compound dilution was added to 50 μL of culture (5% haematocrit, 0.5% parasitaemia) and incubated for 72 h at 37° C. (1% O2, 3% CO2, balance N2). Final concentrations of test compounds ranged from 10,000 nM to 0.51 nM, in […].
On day 4, 10 μL SYBR green (Invitrogen S7563 supplied as 10,000×concentrate in DMSO) pre-diluted to 3× concentrate with Lysis buffer (20 mM Tris pH 7.9, 5% EDTA, 0.16% w/v, 1.6% TX100 v/v) was added to the cultures and incubated in the dark, overnight, at room temperature.
On day 5, fluorescent signal was measured using a BioTek plate reader (excitation 485 nm, emission 528 nm). All data were processed using IDBS ActivityBase. Raw data were converted into percent inhibition through linear regression by setting the high inhibition control as 100% and the no inhibition control as 0%. Quality control criteria for passing plates were as follows: Z′>0.5, S:B>3, % CV(no inhibition control)<15. The formula used to calculate Z′ is
All EC50 curve fitting was undertaken using the following 4 parametric equation:
[formula] where A=% inhibition at bottom; B=% inhibition at top; C=EC50; D=slope; x=inhibitor concentration; and y=% inhibition. […] Assay Procedure—Version 2

With `C[C@@]1(c2cccc(Nc3ccccc3)c2Cl)CC(=O)N([C@@H]2CCOC2)C(=N)N1` (relative stereo) [Example 6, (6S)-6-(3-Anilino-2-chloro-phenyl)-2-imino-6-methyl-3-[(3S or 3R*)-tetrahydrofuran-3-yl]hexahydropyrimidin-4-one] as the compound, how does the IC50 read?
The IC50 was 0.07 µM.

`C[C@@]1(c2cccc(Nc3ccc(F)cc3)c2Cl)CC(=O)N(C2CCCOC2)C(=N)N1` (single isomer, unassigned) [Example 189, (6S)-6-[2-Chloro-3-(4-fluoro-anilino)phenyl]-2-imino-6-methyl-3-[(3S*)-tetrahydro-pyran-3-yl]hexahydropyrimidin-4-one] was tested. Which IC50 did it give?
The IC50 was 0.82 µM.

`C[C@@]1(c2cccc(Nc3ccnc(F)c3)c2Cl)CC(=O)N(C2CCOCC2)C(=N)N1` [Example 29, (6S)-6-{2-Chloro-3-[(2-fluoro-pyridin-4-yl)amino]phenyl}-2-imino-6-methyl-3-(tetrahydro-pyran-4-yl)hexahydropyrimidin-4-one] was tested. Which IC50 did it give?
The IC50 was 0.539 µM.

For `C[C@@]1(c2cccc(Nc3ccccc3Cl)c2Cl)CC(=O)N(C2CCOCC2)C(=N)N1` [Example 15, (6S)-6-[2-Chloro-3-(2-chloro-anilino)phenyl]-2-imino-6-methyl-3-(tetrahydropyran-4-yl)hexahydropyrimidin-4-one], which IC50 is on record?
Its IC50 is 1.53 µM.

With `C[C@@]1(c2cccc(Nc3cccc(S(C)(=O)=O)c3)c2Cl)CC(=O)N(C2CCOCC2)C(=N)N1` [Example 41, (6S)-6-[2-Chloro-3-(3-methyl-sulfonylanilino)phenyl]-2-imino-6-methyl-3-(tetrahydro-pyran-4-yl)hexahydropyrimidin-4-one] as the compound, how does the IC50 read?
The IC50 was 1.95 µM.

How did the IC50 turn out when `C[C@@]1(c2cccc(Nc3ccc(C#N)cc3)c2Cl)CC(=O)N(C2CCOCC2)C(=N)N1` [Example 18, 4-{2-Chloro-3-[(4S)-2-imino-4-methyl-6-oxo-1-(tetrahydro-pyran-4-yl)hexahydropyrimidin-4-yl]anilino}benzonitrile] was run?
Its IC50 is 0.534 µM.

Which IC50 does the source give for `Cc1ccc(Nc2cccc([C@]3(C)CC(=O)N(C4CCOCC4)C(=N)N3)c2Cl)cn1` [Example 14, (6S)-6-{2-Chloro-3-[(6-methyl-pyridin-3-yl)amino]phenyl}-2-imino-6-methyl-3-(tetrahydro-pyran-4-yl)hexahydropyrimidin-4-one] here?
The IC50 was 0.28 µM.

With `Cc1ncccc1Nc1cccc([C@]2(C)CC(=O)N(C3CCOCC3)C(=N)N2)c1Cl` [Example 28, (6S)-6-{2-Chloro-3-[(2-methyl-pyridin-3-yl)amino]phenyl}-2-imino-6-methyl-3-(tetrahydro-pyran-4-yl)hexahydropyrimidin-4-one] as the compound, how does the IC50 read?
Its IC50 is 2.96 µM.

With `C[C@@]1(c2cccc(Nc3ccc(C#N)nc3)c2Cl)CC(=O)N(C2CCOCC2)C(=N)N1` [Example 40, 5-{2-Chloro-3-[(4S)-2-imino-4-methyl-6-oxo-1-(tetrahydro-pyran-4-yl)hexahydropyrimidin-4-yl]anilino}pyridine-2-carbo-nitrile] as the compound, how does the IC50 read?
The IC50 was 1.51 µM.

`C[C@@]1(c2cccc(Nc3ccc(F)cc3)c2Cl)CC(=O)N(C2CC3(COC3)C2)C(=N)N1` [Example 171, (6S)-6-[2-Chloro-3-(4-fluoro-anilino)phenyl]-2-imino-6-methyl-3-(2-oxaspiro[3.3]-heptan-6-yl)hexahydro-pyrimidin-4-one] was tested. Which IC50 did it give?
Its IC50 is 1.14 µM.

How did the IC50 turn out when `C[C@@]1(c2cccc(Nc3cnc4ccccc4c3)c2Cl)CC(=O)N(C2CCOCC2)C(=N)N1` [Example 30, (6S)-6-[2-Chloro-3-(quinolin-3-ylamino)phenyl]-2-imino-6-methyl-3-(tetrahydropyran-4-yl)hexahydropyrimidin-4-one] was run?
Its IC50 is 0.64 µM.

How did the IC50 turn out when `C[C@@]1(c2cccc(Nc3ccc(S(C)(=O)=O)cc3)c2Cl)CC(=O)N(C2CCOCC2)C(=N)N1` [Example 39, (6S)-6-[2-Chloro-3-(4-methyl-sulfonylanilino)phenyl]-2-imino-6-methyl-3-(tetrahydro-pyran-4-yl)hexahydropyrimidin-4-one] was run?
Its IC50 is 2.09 µM.

Which IC50 does the source give for `COc1ccc(F)cc1Nc1cccc([C@]2(C)CC(=O)N(C3CCOCC3)C(=N)N2)c1Cl` [Example 27, (6S)-6-[2-Chloro-3-(5-fluoro-2-methoxyanilino)phenyl]-2-imino-6-methyl-3-(tetrahydro-pyran-4-yl)hexahydropyrimidin-4-one] here?
The IC50 was 0.236 µM.

With `C[C@@]1(c2cccc(Nc3cccc4ncccc34)c2Cl)CC(=O)N(C2CCOCC2)C(=N)N1` [Example 21, (6S)-6-[2-Chloro-3-(quinolin-5-ylamino)phenyl]-2-imino-6-methyl-3-(tetrahydropyran-4-yl)hexahydropyrimidin-4-one] as the compound, how does the IC50 read?
Its IC50 is 1.18 µM.

From patent publication US11479546B2, “Antimalarial hexahydropyrimidine analogues” (UCB Biopharma SRL, priority 2018, dated 2022)
